Experimental data published in ChEMBL document CHEMBL6071145, “A novel theranostic strategy for myocardial infarction through neutralization of endogenous SO2 using an endoplasmic reticulum-targeted fluorescent probe” (Eur J Med Chem, 2024).
Calls of active or inactive are those of the source. The calls are words filed in the database; no cut-off is given here.

Assays:
[1] = Drug uptake in male C57BL mouse model assessed as increase in fluorescence signal in apex cordis at 25 mg/kg; assay type: ADME, organism-based, Apex of heart; settings: in vivo
H9c2 [2] = assay: Cardioprotective activity against H2O2 induced rat H9c2 cells preincubated with compound for 1 hr followed by H2O2 addition for 0.5 hr by confocal microscopic analysis; assay type: functional, cell-based; settings: time 90.0 min
H9c2 [3] = assay: Cytotoxicity against rat H9c2 cells at 80 uM incubated for 48 hrs by CCK-8 assay; assay type: toxicity, cell-based; settings: h9c2, 48 h
[4] = Drug uptake in human A549 cells assessed as increase in green channel at 5 uM treated with SO2 for 1 hr by confocal microscopic analysis; assay type: ADME, cell-based; settings: a549, 1 h
[5] = Drug uptake in human A549 cells assessed as increase in fluorescence ratio at 5 uM treated with SO2 for 1 hr by confocal microscopic analysis; assay type: ADME, cell-based; settings: a549, 1 h
[6] = Drug localization in lysosomes of human A549 cells assessed as colocalization incubated for 20 mins by lysoTracker Green DND-26 staining based analysis; assay type: ADME, subcellular, Lysosome; settings: a549, 20 min
[7] = Drug localization in endoplasmic reticulum of human A549 cells assessed as colocalization incubated for 20 mins by ER-Tracker Green staining based anlaysis; assay type: ADME, subcellular; settings: a549, 20 min
A549 = assay: Cytotoxicity against human A549 cells assessed as reduction in cell viability at 100 uM incubated for 48 hrs by CCK-8 assay; assay type: functional, cell-based
L02 = assay: Cytotoxicity against human LO2 cells assessed as reduction in cell viability at 100 uM incubated for 48 hrs by CCK-8 assay; assay type: toxicity, cell-based; settings: l02, 48 h
[8] = Drug uptake in human A549 cells assessed as decrease in red channel at 5 to 100 uM pretreated with NaHSO3 for 1 hr followed by SO2 for 1 hr by confocal microscopic analysis; assay type: ADME, cell-based; settings: a549, 2 h, dose 5-100 µM
[9] = Drug localization in golgi body of human A549 cells assessed as colocalization incubated for 20 mins by Golgi-Tracker Green staining based analysis; assay type: ADME, subcellular; settings: a549, 20 min
Mus musculus [10] = organism: Mus musculus; assay: Cardioprotective activity against myocardial infarction male C57BL mouse assessed as increase in BCL-2 expression in peri-ischemic region by Western blot analysis; assay type: functional, organism-based
[11] = Photostability of compound in human A549 cells at 5 uM measured within 3 min in the presence of light-irradition; assay type: ADME, cell-based; settings: a549, 0.05 h
[12] = Drug localization in mitochondria of human A549 cells assessed as colocalization incubated for 20 mins by MitoTracker Green staining based analysis; assay type: ADME; settings: a549, 20 min
[13] = Drug uptake in human A549 cells assessed as increase in green channel at 5 to 100 uM pretreated with NaHSO3 for 1 hr followed by SO2 for 1 hr by confocal microscopic analysis; assay type: ADME, cell-based; settings: a549, 2 h, dose 5-100 µM
[14] = Drug uptake in human A549 cells assessed as decrease in red channel at 5 uM treated with SO2 incubated for 1 hr by confocal microscopic analysis; assay type: ADME, cell-based; settings: a549, 1 h
Mus musculus [15] = organism: Mus musculus; assay: Cardioprotective activity against myocardial infarction male C57BL mouse assessed as increase in BCL-2 expression in ischemic region by Western blot analysis; assay type: functional, organism-based
Mus musculus [16] = organism: Mus musculus; assay: Cardioprotective activity against myocardial infarction male C57BL mouse assessed as […] in apoptosis by TUNEL staining based analysis; assay type: functional, organism-based
Mus musculus [17] = organism: Mus musculus; assay: Cardioprotective activity against myocardial infarction male C57BL mouse assessed as decrease in cardiac fibrosis by Masson staining based analysis; assay type: functional, organism-based
H9c2 [18] = assay: Cardioprotective activity against H2O2 induced rat H9C2 cells assessed as increase in green fluorescence at 5 to 50 uM preincubated with compound for 1 hr followed by H2O2 addition for 0.5 hr by confocal microscopic analysis; assay type: functional, cell-based; settings: dose 5-50 µM, time 90.0 min
[19] = Drug uptake in human A549 cells assessed as increase in fluorescence ratio at 5 uM pretreated with NaHSO3 for 1 hr followed by SO2 for 1 hr by confocal microscopic analysis; assay type: ADME, cell-based; settings: a549, 2 h
H9c2 [20] = assay: Cardioprotective activity against H2O2 induced rat H9c2 cells assessed as decrease in red fluorescence at 5 to 50 uM preincubated with compound for 1 hr followed by H2O2 addition for 0.5 hr by confocal microscopic analysis; assay type: functional, cell-based; settings: dose 5-50 µM, time 90.0 min
H9c2 [21] = assay: Cardioprotective activity against H2O2 induced rat H9c2 cells assessed as production of BCL-2 protein at 0 to 50 uM preincubated with compound for 1 hr followed by H2O2 addition for 0.5 hr by Western blot analysis; assay type: functional, cell-based; settings: dose 0-50 µM, time 90.0 min
Mus musculus [22] = organism: Mus musculus; assay: Cardioprotective activity against myocardial infarction male C57BL mouse assessed as decrease in tissue structure by HE staining based analysis; assay type: functional, organism-based
[23] = Drug localization in nucleus of human A549 cells assessed as colocalization incubated for 20 mins by […] staining based analysis; assay type: ADME, subcellular; settings: a549, 20 min

In the case of O=S(=O)([O-])CCCC[n+]1c(CC(c2ccc(N(c3ccccc3)c3ccccc3)cc2)S(=O)(=O)[O-])sc2ccccc21.[Na+] (stereo unspecified), the Drug uptake [1] is reported as “Active”, the Activity (H9c2 [2]) is reported as “inactive” and the Activity (H9c2 [3]) is reported as “Non-Toxic”.

In the case of O=S(=O)([O-])CCCC[n+]1c(/C=C/c2ccc(N(c3ccccc3)c3ccccc3)cc2)sc2ccccc21, the Drug uptake [4] is reported as “Active”, the Drug uptake [5] is reported as “Active” and the Drug uptake [6] is reported as “Not Active”. The Drug uptake [7] was “Active”, the Activity (A549) was “Active” and the Activity (L02) was “Non-Toxic”. For the same compound, the Drug uptake [8] was “Active”, the Drug uptake [9] was “Not Active” and the Activity (Mus musculus [10]) was “Active”. The Stability [11] was “Stable”, the Drug uptake [12] was “Not Active” and the Drug uptake [13] was “Active”. The Drug uptake [14] was “Active”, the Activity (Mus musculus [15]) was “Active” and the Activity (Mus musculus [16]) was “Active”. For the same compound, the Activity (Mus musculus [17]) was “Active”, the Activity (H9c2 [18]) was “Active” and the Drug uptake [19] was “Active”. The Activity (H9c2 [20]) was “Active”, the Activity (H9c2 [21]) was “Active” and the Activity (Mus musculus [22]) was “Active”. For the same compound, the Activity (H9c2 [3]) was “Non-Toxic” and the Drug uptake [23] was “Not Active”.
